Experimental data as given in US9683254B2, “Compositions and methods for identifying enzyme and transport protein inhibitors” (San Diego State University (SDSU) Foundation, priority 2010, dated 2017).

Legend:
HIV-1 PR [1] = target: T1, HIV-1 PR (Human immunodeficiency virus type 1 group M subtype B, UniProt P04585); assay type: cell-based; parameters: expressed in transfected cells; host or cells: SupT1 T-cell clone (lentiviral transduction; rtTA/mCherry, 5xUAS-eGFP reporter, inducible PR/Gal4); details: for concentration resulting in eGFP activation: analyzed 50 hrs, range tested 1 nM to 20 μM
Procedure: Finally, cells were infected with virus encoding the reporter, rtTA and inducible wild-type PR/Gal4 (pH-TRE-PR/Gal4) to test the ability for this system in T-cells to indicate the levels of PR activity.
To determine the optimal time point for the analysis of eGFP expression in the presence of inhibitor, cells were activated with Dox and analyzed by flow cytometry 4, 8, 12, 16, 20, 25, 50, or 75 hours later. Six-well plates containing 250K cells per well in 3 mL media were treated either with DMSO alone as control, or 1 μg/mL Dox and 10 μM Indinavir.
(§1) The range chosen extended from 1 nM to 20 μM.
Flow Cytometry was performed on a BD FACSAria™ with 488 nm and 633 nm lasers. Data was collected on FACSDiva 6.1.1™ software and then exported to FlowJo™. eGFP expression was detected in the FITC channel and mCherry expression was detected on the PE-Texas-Red channel. Cells were first gated for size and granularity (FSC-A vs SSC-A) followed by doublet gating (FSC-A vs FSC-W and SSC-A vs. SSC-W). Sorted populations were gated on PE-TexasRed vs FITC plot. 250K cells were collected for each sample into 0.5 mL fetal calf serum (FCS) and 1 mL RPMI. Cells were then spun down at 1500 RPM and resuspended in fresh media in 6-well plates. Cells were allowed to grow for at least seven days to allow for expansion and loss of previously activated eGFP expression.
FIG. 21A (upper left) schematically illustrates exemplary constructs utilized to generate infectious particles for the transduction of SupT1 cells with the various assay elements. FIG. 21B (right) illustrates data from a cell sorting assay comprising: a previously generated stable SupT1 cell line expressing rtTA and mCherry was infected with the reporter virus (generated from pH-5×UAS-eGFP), or co-infected with the reporter virus plus a virus encoding an inducible assay element (generated from pH-TRE-Gal4, pH-TRE-PR/Gal4, or pH-TRE-PRm/Gal4). Cells were then activated with either 1 μg/mL of Dox alone, or were pre-incubated for 5 minutes with 10 μM Indinavir following activation with 1 μg/mL Dox. […] Finally, single SupT1 cells from the purified population were sorted into 96 well plates and grown as a monoclonal population and then tested for optimal responses to assay induction of eGFP under appropriate conditions. FIG. 21C (lower left) illustrates images of fluorescence microscopy of SupT1 clones expressing the assay elements. Cells expressing various elements of the assay were treated as indicated with DMSO, DMSO+1 μg/mL Dox, or […] Dox+10 μM Indinavir and analyzed 24 hours later by fluorescence microscopy for mCherry and eGFP expression. D. Quantification of eGFP expression of clonal SupT1 cells treated with DMSO, DMSO+1 μg/mL Dox, or 1 μg/mL Dox+10 μM Indinavir.
(§2) FIG. 22 graphically illustrates data determining the optimal conditions for activating the assay to screen for PR inhibition. FIG. 22A graphically illustrates a Doxycycline titration. Clonal SupT1 cells harboring an inducible Gal4, PR/Gal4 or PRm/Gal4 were pre-incubated in a 96 well plate with either DMSO or 10 μM Indinavir and then either left untreated, or activated with […] of Dox. Cells were analyzed by flow cytometry and gated to determine the number of cells positive for eGFP expression. FIG. 22B graphically illustrates a time course of eGFP Induction in response to Doxycyline activation in the presence of DMSO or a PI.

[2] = test system: tet-responsive element (TRE); assay: Doxycycline activation titration of clonal SupT1 cells (Tet-On, eGFP readout); assay type: cell-based
Procedure: In order to optimize the assay for maximal Gal4, PR/Gal4 or PRm/Gal4 induction, we analyzed the effect of increasing levels of Dox. Cells with 0, 50, 100, 250, 500, 750, 1,000, and 2,000 ng/mL Dox were either treated with 10 uM DMSO or 10 uM Indinavir and analyzed 32 hours later. TRE-Gal4 cells reached saturation with Doxycycline at about 1,000 ng/mL whether Indinavir was present or not. […] Again, as with transiently transfected 293 cells, TRE-PR/Gal4 cells had little to non-detectable eGFP expression at any given Dox concentration in the absence of 10 μM Indinavir.
as §2, with “PI. SupT1 clones harboring Gal4, PR/Gal4, or PRm/Gal4 were pre-incubated in a 96 well plate with either DMSO or 10 μM Indinavir and then activated with 1 μg/mL Dox. Cells were analyzed at either 4, 8, 12, 16, 20, 25, 50 or 75 hours by flow cytometry and gated for eGFP positive expression.” for “PI.”

HIV-1 PR [3] = target: T1, HIV-1 PR; assay type: cell-based; parameters: expressed in transfected cells; host or cells: SupT1 T-cell clone (lentiviral transduction; rtTA/mCherry, 5xUAS-eGFP reporter, inducible PR/Gal4); details: clonal SupT1, 96-well plates, pre-incubation with 1 μM PI, activation at 1 μg/mL Dox
HIV-1 PR [4] = target: T1, HIV-1 PR; assay type: cell-based; parameters: expressed in transfected cells; rtTA/mCherry, 5xUAS-eGFP reporter, inducible PR/Gal4; details: HEK293T cells pre-treated with 10 uM inhibitor, co-transfected with reporter and pcDNA-PR/Gal4
Procedure: It was of critical importance to verify the ability for the PR/Gal4 fusion to activate the reporter eGFP by the addition of PR inhibitors. For that purpose, 293T cells were pre-treated with 10 μM Indinavir and then co-transfected with reporter and pcDNA-PR/Gal4 vectors.
293T cells were transfected as follows. 15 μl of 2 mg/mL Polyethylenimine linear 25 kD (Polysciences, Inc.) were added to 125 μl of DMEM in a 1.8 ml Eppendorf tube. 3 g of each DNA was added drop-wise to each tube. Tubes were mixed and incubated for 20 min at RT. This mixture was then added drop-wise to 293T cells in a 10 cm plate at approximately 60-75% confluence. Cells were then analyzed by fluorescence microscopy and/or flow cytometry 24 hrs post transfection.
Top Panel: Fluorescence microscopy of eGFP expression in HEK293T cells 24 hours post transfection with the reporter vector (pFR), or co-transfection with the reporter vector plus either the Gal4, PR/Gal4, or PRm/Gal4 vectors. Bottom panel: HEK293T cells were analyzed by flow cytometry at 24 hours post transfection with the same conditions top panel. Gates were drawn to determine the ability to identify cells with an active PI. […] Quantification of eGFP expression in HEK293T transfected with various assay elements. The numbers of cells under various conditions were quantified for eGFP levels indicative of PR inhibition. Results shown are an average of 3 experiments.

SupT1 cells = assay: Cell death in the reporter T-cell clones during PI concentration response; details: for concentration resulting in significant cell death, with decline in number of eGFP positive cells: human, 50 h
Procedure: as §1
Cells were then analyzed 50 hrs later for eGFP expression as determined by flow cytometry on a BD FACSAria.

[5] = SupT1 PR/Gal4 clone, 1 μg/mL Dox, 50 hrs
[6] = SupT1 PR/Gal4 clone, 1 μg/mL Dox

COC(=O)N[C@H](C(=O)N[C@@H](Cc1ccccc1)[C@@H](O)CN(Cc1ccc(-c2ccccn2)cc1)NC(=O)[C@@H](NC(=O)OC)C(C)(C)C)C(C)(C)C [Atazanavir]
effect on PR inhibition (ranking among tested PIs) (HIV-1 PR [1]; [5]): strongest effect | concentration resulting in eGFP activation (HIV-1 PR [1]; [6]): 1 nM

CC(C)CN(C[C@@H](O)[C@H](Cc1ccccc1)NC(=O)O[C@H]1CO[C@H]2OCC[C@H]21)S(=O)(=O)c1ccc(N)cc1 [Darunavir]
effect on PR inhibition (ranking among tested PIs) (HIV-1 PR [1]; [5]): strongest effect | concentration resulting in eGFP activation (HIV-1 PR [1]; [6]): 1 nM

C[C@H]1c2cccc(O)c2C(=O)C2=C(O)[C@]3(O)C(=O)C(C(N)=O)=C(O)[C@@H](N(C)C)[C@@H]3[C@@H](O)[C@@H]21 [Doxycycline]
concentration at saturation of eGFP induction, TRE-Gal4 cells ([2]; clonal SupT1 TRE-Gal4, with or without 10 uM Indinavir, 32 hours): about 1,000 ng/mL | concentration at maximal eGFP induction, TRE-PR/Gal4 cells ([2]; clonal SupT1 TRE-PR/Gal4, pre-incubation with 10 μM Indinavir, 32 hours): around 500 ng/mL | concentration at saturation of eGFP induction, TRE-PRm/Gal4 cells ([2]; clonal SupT1 TRE-PRm/Gal4, uninhibited and Indinavir-treated, 32 hours): around 250 ng/mL | concentration at which activation is saturated (FIG. 33) ([2]; clonal SupT1 cells pre-incubated with DMSO or 1 μM Indinavir): around 1 μg/mL

CC(C)(C)NC(=O)[C@@H]1CN(Cc2cccnc2)CCN1C[C@@H](O)C[C@@H](Cc1ccccc1)C(=O)N[C@H]1c2ccccc2C[C@H]1O [Indinavir]
time at which activation of clones reaches max (FIG. 34) (HIV-1 PR [3]): around 48 hrs | eGFP expression (reporter activation by PR/Gal4) (HIV-1 PR [4]): drastic induction | concentration inducing nearly full activation of reporter (HIV-1 PR [1]; [5]): 5 µM | levels of reporter activation at low concentrations (ranking among tested PIs) (HIV-1 PR [1]; [5]): lowest levels | activation of PR/Gal4 clones (FIG. 31) (HIV-1 PR [1]; SupT1 PR/Gal4 clones, Dox 1 μg/mL, PI 1 μM, <1% background): ~90% | time of initial induction of eGFP expression (HIV-1 PR [1]; clonal SupT1, 1 μg/mL Dox and 10 μM inhibitor): 8 h | eGFP expression (% of cells) at 50 hours (HIV-1 PR [1]; clonal SupT1, 1 μg/mL Dox and 10 μM inhibitor, by 50 hours): ~100% | eGFP expression (HIV-1 PR [1]; non-clonal SupT1 cells with reporter, rtTA and pH-TRE-PR/Gal4, 1 μg/mL Dox and 10 μM inhibitor): large induction

Cc1cccc(C)c1OCC(=O)N[C@@H](Cc1ccccc1)[C@@H](O)C[C@H](Cc1ccccc1)NC(=O)[C@H](C(C)C)N1CCCNC1=O [Lopinavir]
concentration resulting in significant cell death, with decline in number of eGFP positive cells (SupT1 cells): around 1 uM

Cc1c(O)cccc1C(=O)N[C@@H](CSc1ccccc1)[C@H](O)CN1C[C@H]2CCCC[C@H]2C[C@H]1C(=O)NC(C)(C)C [Nelfinavir]
concentration resulting in significant cell death, with decline in number of eGFP positive cells (SupT1 cells): around 1 uM

CC(C)(C)NC(=O)[C@@H]1C[C@@H]2CCCC[C@@H]2CN1C[C@@H](O)[C@H](Cc1ccccc1)NC(=O)[C@H](CC(N)=O)NC(=O)c1ccc2ccccc2n1 [Saquinavir]
concentration with significant cell death / decline in number of eGFP positive cells (SupT1 cells; SupT1 PR/Gal4 clone, 50 hrs, maximal level tested): 20 µM
